Here are results for 19 compounds from US8969325B2, “TRPV1 antagonists” (AbbVie Inc., priority 2011, dated 2015).

Each structure is given as a SMILES string.

For test [1], the target named is T1, human TRPV1 (Homo sapiens (Human), UniProt Q8NER1). Briefly: Acid Activation Assay (pH 5.0, intracellular Ca2+, FLIPR). Type of test: cell-based. To be noted: percentage of the maximal pH 5.0-induced response remaining; recombinant HEK293 hTRPV1 cells; maximum concentration tested 37.5 μM. Summed up: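 Readout: peak [Ca2+]i fluorescence over baseline on FLIPR, expressed as percentage remaining of the maximal pH 5.0-evoked signal. Stable hTRPV1-HEK293 cells with Calcium-4 dye received compound (12 half-log concentrations, maximum 37.5 μM) 3 min before acidic pH 5.0 buffer.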

For test [2], the target named is T1, human TRPV1. The experiment in a line: Capsaicin Activation Assay (intracellular Ca2+, FLIPR). In kind it is cell-based. The settings on record: recombinant HEK293 cells expressing hTRPV1, 50 nM capsaicin. Summed up:
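Ca2+ fluorescence was recorded by FLIPR every 1 to 5 seconds in HEK293 cells, clonally selected for stable human TRPV1 expression and plated one day ahead. Test compounds came as serial dilutions of 10 mM DMSO stocks.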

T1 sequence (Q8NER1 whole entry): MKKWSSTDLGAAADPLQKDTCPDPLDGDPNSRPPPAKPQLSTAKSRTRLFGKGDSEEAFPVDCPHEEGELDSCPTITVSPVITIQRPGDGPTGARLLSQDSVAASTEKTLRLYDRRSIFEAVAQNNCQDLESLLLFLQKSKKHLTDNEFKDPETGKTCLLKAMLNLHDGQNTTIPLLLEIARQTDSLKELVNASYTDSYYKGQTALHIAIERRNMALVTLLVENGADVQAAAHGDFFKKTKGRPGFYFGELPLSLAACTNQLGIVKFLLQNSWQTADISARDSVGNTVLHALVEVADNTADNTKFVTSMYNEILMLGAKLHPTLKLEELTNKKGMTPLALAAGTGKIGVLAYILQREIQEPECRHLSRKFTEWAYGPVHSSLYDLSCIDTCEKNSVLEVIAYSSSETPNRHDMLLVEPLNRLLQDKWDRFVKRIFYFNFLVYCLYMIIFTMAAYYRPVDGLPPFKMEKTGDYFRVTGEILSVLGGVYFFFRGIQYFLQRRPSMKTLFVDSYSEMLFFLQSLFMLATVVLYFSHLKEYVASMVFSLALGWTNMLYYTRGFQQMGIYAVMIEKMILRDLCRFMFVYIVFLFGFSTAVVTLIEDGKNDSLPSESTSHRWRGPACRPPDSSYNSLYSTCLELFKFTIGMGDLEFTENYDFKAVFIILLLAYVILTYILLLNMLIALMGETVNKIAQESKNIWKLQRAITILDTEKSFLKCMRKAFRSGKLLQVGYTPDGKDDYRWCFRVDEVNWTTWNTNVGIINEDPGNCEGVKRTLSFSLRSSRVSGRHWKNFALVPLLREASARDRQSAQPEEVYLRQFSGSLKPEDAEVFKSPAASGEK

The IC50 is the concentration that gives 50% inhibition. `CCC1(CC)C[C@@H](NC(=O)Nc2ccc3c(c2)NC(=O)N(C)C3)c2ccc(Cl)c(Cl)c2O1` [Example 182, 1-[(4R)-7,8-dichloro-2,2-diethyl-3,4-dihydro-2H-chromen-4-yl]-3-(3-methyl-2-oxo-1,2,3,4-tetrahydroquinazolin-7-yl)urea]: at human TRPV1 [1], the “human TRPV1 H^+ (max % remain)” value amounted to 29%. The 50% inhibitory concentration (IC50) on human TRPV1 [2] came out at 380 nM.

Turning to `CN1Cc2ccc(NC(=O)N[C@@H]3CC(CF)(CF)Oc4cc(OC(F)(F)F)ccc43)cc2NC1=O` [Example 183, 1-[(4R)-2,2-bis(fluoromethyl)-7-(trifluoromethoxy)-3,4-dihydro-2H-chromen-4-yl]-3-(3-methyl-2-oxo-1,2,3,4-tetrahydroquinazolin-7-yl)urea], the “human TRPV1 H^+ (max % remain)” value on human TRPV1 [1] worked out at 42%. For the same compound, the IC50 on human TRPV1 [2] was determined as 120 nM.

For `CN1Cc2ccc(NC(=O)N[C@@H]3CC(C)(C)Oc4cc(C(F)(F)F)ccc43)cc2NC1=O` [Example 184, 1-[(4R)-2,2-dimethyl-7-(trifluoromethyl)-3,4-dihydro-2H-chromen-4-yl]-3-(3-methyl-2-oxo-1,2,3,4-tetrahydroquinazolin-7-yl)urea], on human TRPV1 [1], the “human TRPV1 H^+ (max % remain)” value was found to be 44%. On human TRPV1 [2], the half-maximal inhibitory concentration (IC50) was 86 nM.

For `CCCC1(CCC)C[C@@H](NC(=O)Nc2ccc3c(c2)NC(=O)N(C)C3)c2cc(F)ccc2O1` [Example 185, 1-[(4R)-6-fluoro-2,2-dipropyl-3,4-dihydro-2H-chromen-4-yl]-3-(3-methyl-2-oxo-1,2,3,4-tetrahydroquinazolin-7-yl)urea], the “human TRPV1 H^+ (max % remain)” value on human TRPV1 [1] is given as 61%. Also, the IC50 at human TRPV1 [2] was 210 nM.

For the compound `CN1Cc2ccc(NC(=O)N[C@@H]3CC(CF)(CF)Oc4ccc(F)cc43)cc2NC1=O` [Example 186, 1-[(4R)-6-fluoro-2,2-bis(fluoromethyl)-3,4-dihydro-2H-chromen-4-yl]-3-(3-methyl-2-oxo-1,2,3,4-tetrahydroquinazolin-7-yl)urea], the “human TRPV1 H^+ (max % remain)” value on human TRPV1 [1] came to 58%. In addition, on human TRPV1 [2], the 50% inhibitory concentration (IC50) was determined as 1500 nM.

On to `CN1Cc2ccc(NC(=O)N[C@@H]3CC(CF)(CF)Oc4c(F)cc(F)cc43)cc2NC1=O` [Example 187, 1-[(4R)-6,8-difluoro-2,2-bis(fluoromethyl)-3,4-dihydro-2H-chromen-4-yl]-3-(3-methyl-2-oxo-1,2,3,4-tetrahydroquinazolin-7-yl)urea], for which the “human TRPV1 H^+ (max % remain)” value at human TRPV1 [1] turned out to be 50%. Also, the concentration for half-maximal inhibition (IC50) at human TRPV1 [2] was 760 nM.

In the case of `CN1Cc2ccc(NC(=O)N[C@@H]3CC4(CCC4)Oc4ccc(F)cc43)cc2NC1=O` [Example 188, 1-[(4R)-6-fluoro-3,4-dihydrospiro[chromene-2,1′-cyclobutan]-4-yl]-3-(3-methyl-2-oxo-1,2,3,4-tetrahydroquinazolin-7-yl)urea], the “human TRPV1 H^+ (max % remain)” value at human TRPV1 [1] is on record as 46%. The IC50 on human TRPV1 [2] was 290 nM.

In the case of `CCC1(CC)C[C@@H](NC(=O)Nc2ccc3c(c2)NC(=O)N(C)C3)c2cc(F)ccc2O1` [Example 189, 1-[(4R)-2,2-diethyl-6-fluoro-3,4-dihydro-2H-chromen-4-yl]-3-(3-methyl-2-oxo-1,2,3,4-tetrahydroquinazolin-7-yl)urea], the “human TRPV1 H^+ (max % remain)” value at human TRPV1 [1] is recorded as 40%. Moreover, at human TRPV1 [2], the IC50 worked out at 200 nM.

With `CCCC1(CCC)C[C@@H](NC(=O)Nc2ccc3c(c2)NC(=O)N(C)C3)c2cccc(F)c2O1` [Example 190, 1-[(4R)-8-fluoro-2,2-dipropyl-3,4-dihydro-2H-chromen-4-yl]-3-(3-methyl-2-oxo-1,2,3,4-tetrahydroquinazolin-7-yl)urea], on human TRPV1 [1], the “human TRPV1 H^+ (max % remain)” value is given as 79%. At human TRPV1 [2], the IC50 was found to be 450 nM.

Turning to `CCC1(CC)C[C@@H](NC(=O)Nc2ccc3c(c2)NC(=O)N(C)C3)c2ccc(OC(F)(F)F)cc2O1` [Example 191, 1-[(4R)-2,2-diethyl-7-(trifluoromethoxy)-3,4-dihydro-2H-chromen-4-yl]-3-(3-methyl-2-oxo-1,2,3,4-tetrahydroquinazolin-7-yl)urea], on human TRPV1 [1], the “human TRPV1 H^+ (max % remain)” value came out at 19%. Further, on human TRPV1 [2], the concentration for half-maximal inhibition (IC50) turned out to be 450 nM.

`CN1Cc2ccc(NC(=O)N[C@@H]3CC(CF)(CF)Oc4c3ccc(Cl)c4F)cc2NC1=O` [Example 192, 1-[(4R)-7-chloro-8-fluoro-2,2-bis(fluoromethyl)-3,4-dihydro-2H-chromen-4-yl]-3-(3-methyl-2-oxo-1,2,3,4-tetrahydroquinazolin-7-yl)urea]: the “human TRPV1 H^+ (max % remain)” value at human TRPV1 [1] came out at 53%. Moreover, the IC50 on human TRPV1 [2] amounted to 280 nM.

Regarding `CN1Cc2ccc(NC(=O)N[C@@H]3CC(C)(C)Oc4ccccc43)cc2NC1=O` [Example 193, 1-[(4R)-2,2-dimethyl-3,4-dihydro-2H-chromen-4-yl]-3-(3-methyl-2-oxo-1,2,3,4-tetrahydroquinazolin-7-yl)urea], the “human TRPV1 H^+ (max % remain)” value at human TRPV1 [1] is on record as 56%. Further, the IC50 on human TRPV1 [2] turned out to be 270 nM.

Consider `CN1Cc2ccc(NC(=O)N[C@H]3CCOc4cc(OC(F)(F)F)ccc43)cc2NC1=O` [Example 194, 1-(3-methyl-2-oxo-1,2,3,4-tetrahydroquinazolin-7-yl)-3-[(4S)-7-(trifluoromethoxy)-3,4-dihydro-2H-chromen-4-yl]urea], for which, on human TRPV1 [1], the “human TRPV1 H^+ (max % remain)” value was determined as 52%. Besides, the concentration for half-maximal inhibition (IC50) on human TRPV1 [2] worked out at 1800 nM.

As for `CN1Cc2ccc(NC(=O)N[C@@H]3CCOc4cc(OC(F)(F)F)ccc43)cc2NC1=O` [Example 195, 1-(3-methyl-2-oxo-1,2,3,4-tetrahydroquinazolin-7-yl)-3-[(4R)-7-(trifluoromethoxy)-3,4-dihydro-2H-chromen-4-yl]urea], the “human TRPV1 H^+ (max % remain)” value on human TRPV1 [1] turned out to be 49%. For the same compound, the half-inhibitory concentration (IC50) on human TRPV1 [2] came out at 280 nM.

On to `COCC1(COC)C[C@@H](NC(=O)Nc2ccc3c(c2)NC(=O)N(C)C3)c2cc(F)ccc2O1` [Example 196, 1-[(4R)-6-fluoro-2,2-bis(methoxymethyl)-3,4-dihydro-2H-chromen-4-yl]-3-(3-methyl-2-oxo-1,2,3,4-tetrahydroquinazolin-7-yl)urea], for which the “human TRPV1 H^+ (max % remain)” value on human TRPV1 [1] is reported as 53%. Besides, the IC50 at human TRPV1 [2] stood at 2700 nM.

For `CN1Cc2ccc(NC(=O)N[C@@H]3CC(CF)(CF)Oc4ccccc43)cc2NC1=O` [Example 197, 1-[(4R)-2,2-bis(fluoromethyl)-3,4-dihydro-2H-chromen-4-yl]-3-(3-methyl-2-oxo-1,2,3,4-tetrahydroquinazolin-7-yl)urea], on human TRPV1 [1], the “human TRPV1 H^+ (max % remain)” value worked out at 57%. The IC50 on human TRPV1 [2] was 1100 nM.

Regarding `CN1Cc2ccc(NC(=O)N[C@@H]3CC(CF)(CF)Oc4c(F)cccc43)cc2NC1=O` [Example 198, 1-[(4R)-8-fluoro-2,2-bis(fluoromethyl)-3,4-dihydro-2H-chromen-4-yl]-3-(3-methyl-2-oxo-1,2,3,4-tetrahydroquinazolin-7-yl)urea], at human TRPV1 [1], the “human TRPV1 H^+ (max % remain)” value is listed as 55%. Further, the IC50 on human TRPV1 [2] is 350 nM.

As to `CN1Cc2ccc(NC(=O)N[C@@H]3CCOc4ccc(F)cc43)cc2NC1=O` [Example 199, 1-[(4R)-6-fluoro-3,4-dihydro-2H-chromen-4-yl]-3-(3-methyl-2-oxo-1,2,3,4-tetrahydroquinazolin-7-yl)urea], the “human TRPV1 H^+ (max % remain)” value on human TRPV1 [1] is given as 58%. Besides, the IC50 at human TRPV1 [2] stood at 6700 nM.

Take `CN1Cc2ccc(NC(=O)N[C@@H]3CCOc4c3cccc4C(F)(F)F)cc2NC1=O` [Example 200, 1-(3-methyl-2-oxo-1,2,3,4-tetrahydroquinazolin-7-yl)-3-[(4R)-8-(trifluoromethyl)-3,4-dihydro-2H-chromen-4-yl]urea]: the “human TRPV1 H^+ (max % remain)” value at human TRPV1 [1] is given as 21%. The IC50 at human TRPV1 [2] was 90 nM.
